PubChem BioAssay AID192 (DTP/NCI, 2004)
Where “and” joins values, the source holds several entries; their conditions need not be identical. Equal entries are not always repeated. Inconclusive results and toxic doses are left out. Square brackets hold non-standard residues; d marks the D form. Peptide text beside a SMILES is read from it. ξ: configuration not given here. ξV = CC(C)C(N)C(=O)O

System: BDF1 mice, B16 melanoma ip, median survival T/C
Assay: NCI In Vivo Anticancer Drug Screen. Data for tumor model B16 Melanoma (intraperitoneal) in B6D2F1 (BDF1) mice
Details: endpoint: median survival time, higher = longer survival
In short: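 Survival or tumor size is measured after treatment of tumor-bearing mice and normalised to the vehicle-treated control group.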

[1] = dose: 12.5 mg/kg/injection, schedule: Q01DX009 (ip), vehicle: saline
[2] = dose: 50.0 mg/kg/injection, schedule: Q01DX009 (ip), vehicle: Klucel (hydroxypropylcellulose) (HPC)
[3] = dose: 100.0 mg/kg/injection, schedule: Q01DX009 (ip), vehicle: Klucel (hydroxypropylcellulose) (HPC)
[4] = dose: 200.0 mg/kg/injection, schedule: Q01DX009 (ip), vehicle: Klucel (hydroxypropylcellulose) (HPC)

## Cc1c2ccncc2c(C)c2c1[nH]c1ccccc12
dose: 1.25 mg/kg/injection, schedule: Q01DX009 (ip), vehicle: saline
  T/C: 109 % of control
dose: 1.25 mg/kg/injection, schedule: Q01DX009 (ip), vehicle: water
  T/C: 102 % of control
dose: 2.5 mg/kg/injection, schedule: Q01DX009 (ip), vehicle: saline
  T/C: 113 % of control
dose: 2.5 mg/kg/injection, schedule: Q01DX009 (ip), vehicle: water
  T/C: 103 % of control and 110 % of control
dose: 5.0 mg/kg/injection, schedule: Q01DX009 (ip), vehicle: saline
  T/C: 120 % of control
dose: 5.0 mg/kg/injection, schedule: Q01DX009 (ip), vehicle: water
  T/C: 110 % of control and 114 % of control
dose: 8.0 mg/kg/injection, schedule: Q01DX005 (iv), vehicle: saline with Tween-80
  T/C: 106 % of control
dose: 12.5 mg/kg/injection, schedule: Q04DX003 (ip), vehicle: distilled water + Tween-80
  T/C: 117 % of control and 121 % of control
dose: 16.0 mg/kg/injection, schedule: Q01DX005 (ip), vehicle: saline with Tween-80
  T/C: 171 % of control
dose: 16.0 mg/kg/injection, schedule: Q01DX005 (iv), vehicle: saline with Tween-80
  T/C: 110 % of control
dose: 16.0 mg/kg/injection, schedule: Q01DX005 (oral), vehicle: saline with Tween-80
  T/C: 110 % of control
dose: 25.0 mg/kg/injection, schedule: Q04DX003 (ip), vehicle: distilled water + Tween-80
  T/C: 119 % of control
dose: 32.0 mg/kg/injection, schedule: Q01DX005 (ip), vehicle: saline with Tween-80
  T/C: 191 % of control
dose: 32.0 mg/kg/injection, schedule: Q01DX005 (oral), vehicle: saline with Tween-80
  T/C: 108 % of control
dose: 50.0 mg/kg/injection, schedule: Q04DX003 (ip), vehicle: Klucel (hydroxypropylcellulose) (HPC)
  T/C: 154 % of control
dose: 64.0 mg/kg/injection, schedule: Q01DX005 (oral), vehicle: saline with Tween-80
  T/C: 117 % of control
dose: 100.0 mg/kg/injection, schedule: Q04DX003 (ip), vehicle: distilled water + Tween-80
  T/C: 153 % of control

## Cc1ccc(NC(=O)Nc2ccccc2Cl)cc1
dose: 100.0 mg/kg/injection, schedule: Q01DX009 (ip), vehicle: gum acacia
  T/C: 89 % of control

## C1CN1c1nc(N2CC2)nc(N2CC2)n1
dose: 0.05 mg/kg/injection, schedule: Q01DX009 (ip), vehicle: saline
  T/C: 97 % of control and 108 % of control
dose: 0.06 mg/kg/injection, schedule: Q01DX009 (ip), vehicle: saline
  T/C: 103 % of control
dose: 0.06 mg/kg/injection, schedule: Q01DX009 (ip), vehicle: suspension in saline
  T/C: 103 % of control
dose: 0.1 mg/kg/injection, schedule: Q01DX009 (ip), vehicle: saline
  T/C: 103 % of control and 109 % of control and 120 % of control
dose: 0.12 mg/kg/injection, schedule: Q01DX009 (ip), vehicle: saline with Tween-80
  T/C: 107 % of control
dose: 0.12 mg/kg/injection, schedule: Q01DX009 (ip), vehicle: suspension in saline
  T/C: 100 % of control
dose: 0.13 mg/kg/injection, schedule: Q01DX009 (ip), vehicle: saline sonified
  T/C: 94 % of control and 96 % of control
dose: 0.13 mg/kg/injection, schedule: Q01DX009 (ip), vehicle: saline with Tween-80
  T/C: 102 % of control and 105 % of control
dose: 0.25 mg/kg/injection, schedule: Q01DX009 (ip), vehicle: saline sonified
  T/C: 96 % of control and 100 % of control
dose: 0.25 mg/kg/injection, schedule: Q01DX009 (ip), vehicle: saline with Tween-80
  T/C: 107 % of control and 108 % of control and 119 % of control
dose: 0.25 mg/kg/injection, schedule: Q01DX009 (ip), vehicle: suspension in saline
  T/C: 108 % of control
dose: 0.3 mg/kg/injection, schedule: Q01DX009 (ip), vehicle: saline
  T/C: 150 % of control
dose: 0.5 mg/kg/injection, schedule: Q01DX009 (ip), vehicle: saline sonified
  T/C: 96 % of control and 101 % of control
dose: 0.5 mg/kg/injection, schedule: Q01DX009 (ip), vehicle: saline with Tween-80
  T/C: 105 % of control and 114 % of control and 119 % of control
dose: 0.5 mg/kg/injection, schedule: Q01DX009 (ip), vehicle: suspension in saline
  T/C: 124 % of control
dose: 0.5 mg/kg/injection, schedule: Q08DX002 (ip), vehicle: saline sonified
  T/C: 98 % of control and 103 % of control
dose: 0.5 mg/kg/injection, schedule: Q08DX002 (ip), vehicle: saline with Tween-80
  T/C: 100 % of control and 119 % of control
dose: 1.0 mg/kg/injection, schedule: Q01DX009 (ip), vehicle: suspension in saline
  T/C: 109 % of control
dose: 1.0 mg/kg/injection, schedule: Q08DX002 (ip), vehicle: saline sonified
  T/C: 108 % of control and 114 % of control
dose: 1.0 mg/kg/injection, schedule: Q08DX002 (ip), vehicle: saline with Tween-80
  T/C: 102 % of control and 113 % of control and 116 % of control
dose: 2.0 mg/kg/injection, schedule: Q08DX002 (ip), vehicle: saline sonified
  T/C: 105 % of control
dose: 2.0 mg/kg/injection, schedule: Q08DX002 (ip), vehicle: saline with Tween-80
  T/C: 123 % of control
dose: 4.0 mg/kg/injection, schedule: Q08DX002 (ip), vehicle: saline with Tween-80
  T/C: 90 % of control and 105 % of control

## [Cl][Pd]([Cl])([Cl])[Cl]
dose: 6.25 mg/kg/injection, schedule: Q01DX009 (ip), vehicle: saline
  T/C: 103 % of control
[1]
  T/C: 92 % of control

## COc1ccc2c(c1)CN(S(=O)(=O)c1ccc(C)cc1)CCC2O (stereo not given)
dose: 100.0 mg/kg/injection, schedule: Q04DX003 (ip), vehicle: Klucel (hydroxypropylcellulose) (HPC)
  T/C: 96 % of control
dose: 200.0 mg/kg/injection, schedule: Q04DX003 (ip), vehicle: Klucel (hydroxypropylcellulose) (HPC)
  T/C: 93 % of control
dose: 400.0 mg/kg/injection, schedule: Q04DX003 (ip), vehicle: Klucel (hydroxypropylcellulose) (HPC)
  T/C: 95 % of control

## c1ccc(Oc2ccccn2)cc1
[2]
  T/C: 111 % of control
[3]
  T/C: 117 % of control
[4]
  T/C: 123 % of control

## COc1cc2c[n+](C)c3c4cc(OC)c(OC)cc4ccc3c2cc1OC
dose: 6.25 mg/kg/injection, schedule: Q01DX001 (ip), vehicle: saline with Tween-80
  T/C: 109 % of control
dose: 12.5 mg/kg/injection, schedule: Q01DX001 (ip), vehicle: saline with Tween-80
  T/C: 100 % of control
dose: 25.0 mg/kg/injection, schedule: Q01DX001 (ip), vehicle: saline with Tween-80
  T/C: 105 % of control
dose: 50.0 mg/kg/injection, schedule: Q01DX001 (ip), vehicle: saline with Tween-80
  T/C: 88 % of control
[2]
  T/C: 108 % of control
dose: 100.0 mg/kg/injection, schedule: Q01DX001 (ip), vehicle: saline with Tween-80
  T/C: 90 % of control
[3]
  T/C: 102 % of control

## Cc1cc(Cc2cc(C)cc(C(C)(C)C)c2O)c(O)c(Cc2cc(C)cc(C(C)(C)C)c2O)c1
dose: 100.0 mg/kg/injection, schedule: Q04DX003 (ip), vehicle: gum acacia
  T/C: 97 % of control
dose: 200.0 mg/kg/injection, schedule: Q04DX003 (ip), vehicle: gum acacia
  T/C: 100 % of control

## O=C1c2ccccc2-c2ncccc21
[2]
  T/C: 100 % of control
[3]
  T/C: 87 % of control
[4]
  T/C: 96 % of control

## C1CCC(=NN=C2CCCCC2)CC1
dose: 50.0 mg/kg/injection, schedule: Q04DX003 (sc), vehicle: olive oil, sesame oil, peanut oil
  T/C: 111 % of control
dose: 100.0 mg/kg/injection, schedule: Q04DX003 (sc), vehicle: olive oil, sesame oil, peanut oil
  T/C: 95 % of control
dose: 200.0 mg/kg/injection, schedule: Q04DX003 (sc), vehicle: olive oil, sesame oil, peanut oil
  T/C: 102 % of control

## CC1C=CC(C(N)C(=O)O)O1 (stereo not given)
[1]
  T/C: 97 % of control
dose: 25.0 mg/kg/injection, schedule: Q01DX009 (ip), vehicle: saline
  T/C: 92 % of control

## CC(C)C(NC(=O)CNC(=O)CN)C(=O)O (stereo not drawn) (H-Gly-Gly-[ξV]-OH)
dose: 100.0 mg/kg/injection, schedule: Q01DX009 (ip), vehicle: saline
  T/C: 95 % of control
dose: 100.0 mg/kg/injection, schedule: Q04DX003 (ip), vehicle: saline
  T/C: 100 % of control
dose: 200.0 mg/kg/injection, schedule: Q01DX009 (ip), vehicle: saline
  T/C: 97 % of control
dose: 200.0 mg/kg/injection, schedule: Q04DX003 (ip), vehicle: saline
  T/C: 97 % of control
dose: 400.0 mg/kg/injection, schedule: Q01DX009 (ip), vehicle: saline
  T/C: 95 % of control
dose: 400.0 mg/kg/injection, schedule: Q04DX003 (ip), vehicle: saline
  T/C: 95 % of control

## CN(C)N=Nc1ccc(S(N)(=O)=O)cc1
dose: 25.0 mg/kg/injection, schedule: Q01DX009 (ip), vehicle: Klucel (hydroxypropylcellulose) (HPC)
  T/C: 116 % of control
[2]
  T/C: 111 % of control
[3]
  T/C: 98 % of control
